Patent US12371432B2, “Haloallylamine compounds and application thereof” (TransThera Sciences (Nanjing), Inc., priority 2019, dated 2025)
pIC50: −log10 of the molar value. Counter-ions that a name gives are not always drawn.

Assays:
Type in all cases: biochemical
rhVAP-1 [1] = biological target: T1, rhVAP-1 (Homo sapiens, UniProt Q16853); experiment: Inhibitory activity against rhVAP-1 enzyme (Biological Example 2); settings: Table 2; benzylamine substrate, Amplex Red/HRP
T1 construct: purchased PeproTech
T1 sequence (Q16853 27-763 limits assumed): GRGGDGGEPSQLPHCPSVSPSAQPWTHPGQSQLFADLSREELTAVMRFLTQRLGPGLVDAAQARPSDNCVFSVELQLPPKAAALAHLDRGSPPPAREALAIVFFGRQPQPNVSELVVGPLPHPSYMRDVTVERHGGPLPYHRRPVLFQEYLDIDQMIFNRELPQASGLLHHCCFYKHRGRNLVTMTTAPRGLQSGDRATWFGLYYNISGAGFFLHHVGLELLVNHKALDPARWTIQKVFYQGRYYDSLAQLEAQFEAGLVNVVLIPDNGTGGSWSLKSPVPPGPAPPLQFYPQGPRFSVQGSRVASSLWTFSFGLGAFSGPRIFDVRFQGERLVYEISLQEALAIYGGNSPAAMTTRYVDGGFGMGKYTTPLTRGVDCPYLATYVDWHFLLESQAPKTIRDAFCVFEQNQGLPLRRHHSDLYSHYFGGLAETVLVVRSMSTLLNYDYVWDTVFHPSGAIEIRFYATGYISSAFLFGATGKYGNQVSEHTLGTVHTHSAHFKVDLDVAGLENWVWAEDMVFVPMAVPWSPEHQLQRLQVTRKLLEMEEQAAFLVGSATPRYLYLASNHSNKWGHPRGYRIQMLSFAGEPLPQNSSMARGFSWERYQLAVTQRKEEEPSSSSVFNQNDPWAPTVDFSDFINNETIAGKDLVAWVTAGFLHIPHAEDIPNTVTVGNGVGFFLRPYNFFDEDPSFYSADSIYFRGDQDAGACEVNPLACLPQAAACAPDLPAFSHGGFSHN
Description: (§1) 1. Inhibitory Activity of Compounds Against rhVAP-1 Enzyme
(§2) (1) Instrument, Consumable and Reagent
Microplate reader (Perkin Elmer, Nivo 5S), black unclear-bottom 96-well plate (Corning) and rhVAP-1 (PeproTech)
(§3) (2) Preparation of Concentration Gradient Compound Solutions
(§4) An appropriate amount of the compound to be tested was taken, dissolved in DMSO to 10 mM and then stored. Before the study, an appropriate amount of mother liquor of the 10 mM compound to be tested was taken and gradiently diluted 3-fold with DMSO, 10 concentration gradients in total. Each concentration gradient was then diluted 100-fold with 0.1 M of PBS.
(§5) (3) Preparation of Enzyme Solutions
(§6) An appropriate amount of protein diluent was added into rhVAP-1 powder, obtaining 1 mg/mL of mother liquor for storage. Before the study, PBS was used to carry out dilution to obtain enzyme solutions of 4× concentrations.
(§7) (4) Preparation of Substrate Mixtures of 2× Concentrations
(§8) An appropriate amount of benzylamine was weighed and dissolved with PBS to obtain 200 mM of benzylamine solution. The benzylamine solution was added with 2 mM of Amplex Red mother liquor and 500 U/mL of HRP mother liquor and diluted with PBS to obtain substrate mixtures of 2× concentrations.
10 μL compound solutions of different concentrations, 25 μL rhVAP-1 enzyme solutions of 4× concentrations and 15 μL of PBS were first added into a 96-well plate, shaken to be mixed uniformly and then incubated at 37° C. for 30 min. 50 μL substrate mixtures of 2× concentrations were then added into each well, and the microplate reader was immediately used to perform detection with 580 nm (20 nm) exciting light and 620 nm (10 nm) emission light for 5 min each time, 30 min in total. The inhibition rate was calculated according to the following formula: V (RFU/min)=(Ft (RFU)−F0 (RFU))/(time(min)) Inhibition rate (%)=100%−Vcmpd (RFU/min)/Vmax (RFU/min)×100%
V: fluorescence change rate; Ft: fluorescence reading at time point t; F0: initial fluorescence reading; Time: duration t; Vcmpd: fluorescence change rate of tested compound; Vmax: Max hole fluorescence change rate.
(6) Fitting of Dose-Response Curve
(§9) With the log value of concentration as the X axis and the percent inhibition rate as the Y axis, the log (inhibitor) vs. response-variable slope of analysis software GraphPad Prism 5 was used to fit a dose-response curve, thus obtaining the IC50 value of activity of each compound against the enzyme.

MAO-A = biological target: T2, MAO-A (Homo sapiens, UniProt P21397); experiment: Selectivity against MAO-A enzyme (MAO-Glo)
T2 construct: purchased Active Motif
T2 sequence (P21397 1-527): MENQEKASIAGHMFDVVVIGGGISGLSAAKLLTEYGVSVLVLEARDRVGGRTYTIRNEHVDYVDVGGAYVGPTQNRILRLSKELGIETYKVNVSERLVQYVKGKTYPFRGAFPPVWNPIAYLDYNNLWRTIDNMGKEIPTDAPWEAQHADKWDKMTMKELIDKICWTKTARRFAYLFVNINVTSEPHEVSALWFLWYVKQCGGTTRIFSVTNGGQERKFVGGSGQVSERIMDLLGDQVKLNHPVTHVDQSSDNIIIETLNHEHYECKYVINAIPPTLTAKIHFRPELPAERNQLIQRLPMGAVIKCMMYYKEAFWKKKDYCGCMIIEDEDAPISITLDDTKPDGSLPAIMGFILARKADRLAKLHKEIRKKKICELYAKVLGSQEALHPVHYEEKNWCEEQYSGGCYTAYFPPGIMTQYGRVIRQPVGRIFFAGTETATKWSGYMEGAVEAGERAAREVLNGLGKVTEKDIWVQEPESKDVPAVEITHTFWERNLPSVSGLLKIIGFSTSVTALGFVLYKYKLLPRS
Description: as §2
(§10) Microplate reader (Perkin Elmer, EnVision), 384-well plate (Perkin Elmer), centrifuge (Eppendorf), MAO-Glo™ (Promega), MAO-A (Active Motif) and MAO-B (Active Motif).
as §3
(§11) An appropriate amount of the compound to be tested was taken, dissolved in DMSO to 10 mM and then stored. The solution was then gradiently diluted 4-fold with DMSO, 6 concentration gradients in total.
as §5
(§12) MAO-A/B mother liquor was diluted with the experimental buffer for MAO-A/B to obtain enzyme solutions of 2× concentrations.
as §7
(§13) The mother liquor of MAO-A/B substrate mixture was diluted with the experimental buffer for MAO-A/B to obtain substrate mixtures of 2× concentrations.
(§14) 200 nL compound solutions or solvents of different concentrations and 10 μL MAO-A/B enzyme solutions of 2× concentrations were added into a 384-well plate, centrifuged at 1,000 rpm for 60 s, shaken to be mixed uniformly and then incubated at room temperature for 15 min. 10 μL substrate mixtures of 2× concentrations were then added into each well, and reaction was initiated. The 384-well plate was centrifuged at 1,000 rpm for 60 s, shaken for a uniform mixing and then incubated at room temperature for 60 min. 20 μL of test stop solution was added to stop reaction. Centrifugation was performed at 1,000 rpm for 60 s, and shaking was performed for uniform mixing. After 30 min of standing, the microplate reader was used to perform reading.
(§15) The inhibition rate was calculated according to the following formula: Inhibition rate (%)=(Signal_Max-Signal_sample)/(Signal_Max-Signal_min)×100 (6) Fitting of Dose-Response Curve
as §9

MAO-B = biological target: T3, MAO-B (Homo sapiens, UniProt P27338); experiment: Selectivity against MAO-B enzyme (MAO-Glo)
T3 construct: purchased Active Motif
T3 sequence (P27338 1-520): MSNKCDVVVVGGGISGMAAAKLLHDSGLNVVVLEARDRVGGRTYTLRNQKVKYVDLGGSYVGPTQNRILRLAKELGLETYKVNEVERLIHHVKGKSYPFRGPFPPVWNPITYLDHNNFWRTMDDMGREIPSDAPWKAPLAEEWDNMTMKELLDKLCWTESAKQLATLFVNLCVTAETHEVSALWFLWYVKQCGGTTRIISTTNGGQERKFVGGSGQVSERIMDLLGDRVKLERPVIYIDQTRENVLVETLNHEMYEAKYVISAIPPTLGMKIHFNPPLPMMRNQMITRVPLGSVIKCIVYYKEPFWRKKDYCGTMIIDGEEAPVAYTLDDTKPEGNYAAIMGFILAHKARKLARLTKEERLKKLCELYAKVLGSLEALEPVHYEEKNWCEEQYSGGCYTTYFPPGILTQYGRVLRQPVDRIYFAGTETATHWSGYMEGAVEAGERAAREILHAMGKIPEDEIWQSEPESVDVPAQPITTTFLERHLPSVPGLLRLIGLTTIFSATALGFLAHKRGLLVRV
Description: as §2, §10, §3, §11, §5, §12, §7, §13, §14, §15, §9

rhAOC1 = biological target: T4, rhAOC1 (Homo sapiens, UniProt P19801); experiment: Selectivity against rhAOC1 enzyme (Biological Example 1); settings: Table 1; histamine substrate, Amplex Red/HRP
T4 construct: purchased R&D
T4 sequence (P19801 20-751): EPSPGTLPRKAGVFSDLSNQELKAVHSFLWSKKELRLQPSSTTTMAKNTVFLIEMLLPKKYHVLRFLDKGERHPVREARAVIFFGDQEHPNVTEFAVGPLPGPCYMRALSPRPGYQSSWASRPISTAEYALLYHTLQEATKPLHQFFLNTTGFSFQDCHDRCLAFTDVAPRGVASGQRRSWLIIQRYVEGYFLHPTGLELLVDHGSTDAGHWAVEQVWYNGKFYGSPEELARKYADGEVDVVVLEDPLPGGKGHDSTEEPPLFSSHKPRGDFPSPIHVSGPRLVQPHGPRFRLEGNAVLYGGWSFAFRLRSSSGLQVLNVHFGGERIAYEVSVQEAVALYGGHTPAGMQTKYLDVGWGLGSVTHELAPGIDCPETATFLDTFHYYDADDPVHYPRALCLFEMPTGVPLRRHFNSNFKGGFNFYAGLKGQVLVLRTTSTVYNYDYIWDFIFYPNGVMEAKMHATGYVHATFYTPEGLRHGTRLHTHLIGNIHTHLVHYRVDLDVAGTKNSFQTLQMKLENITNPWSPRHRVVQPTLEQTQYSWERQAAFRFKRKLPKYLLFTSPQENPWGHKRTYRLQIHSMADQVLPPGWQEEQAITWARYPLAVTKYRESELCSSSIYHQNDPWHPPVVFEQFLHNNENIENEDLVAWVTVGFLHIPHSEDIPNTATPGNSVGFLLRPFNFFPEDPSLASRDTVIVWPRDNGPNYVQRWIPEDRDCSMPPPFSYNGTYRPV
Description: 2. Selectivity of Compounds Against rhAOC1 Enzyme
as §2
Microplate reader (Perkin Elmer, Nivo 5S), black unclear-bottom 96-well plate (Corning) and rhAOC1 (R&D)
as §3
as §4, with “10-fold” for “100-fold”
as §5
An appropriate amount of rhAOC1 mother liquor with a concentration of 0.441 mg/mL was taken and diluted with an appropriate amount of 50 mM HEPES buffer solution to obtain enzyme solutions of 4× concentrations.
as §7
as §8, with “histamine” for “benzylamine”, “50 mM of HEPES buffer solution” for “PBS”, “20” for “200”
10 μL compound solutions of different concentrations, 25 μL rhAOC1 enzyme solutions of 4× concentrations and 15 μL of 50 mM HEPES buffer solution were first added into a 96-well plate, shaken to be mixed uniformly and then incubated at 37° C. for 30 min. 50 μL substrate mixtures of 2× concentrations were then added into each well, and the microplate reader was immediately used to detect fluorescence intensity of each well with 580 nm (20 nm) exciting light and 620 nm (10 nm) emission light for 5 min each time, 30 min in total. […]
(§16) V: fluorescence change rate; Ft: fluorescence reading at time point t; F0: initial fluorescence reading; Time: duration t; Vcmpd: fluorescence change rate of tested compound; Vmax: Max hole fluorescence change rate. […]

rhVAP-1 [2] = biological target: T1, rhVAP-1; experiment: Inhibitory activity against rhVAP-1 enzyme (Biological Example 1); settings: Table 1; benzylamine substrate, Amplex Red/HRP
Description: as §1, §2
Multifunctional microplate reader (MD, FlexStation3), black unclear-bottom 96-well plate (Corning), and rhVAP-1 (PeproTech)
as §3
An appropriate amount of the compound to be tested was taken, dissolved in DMSO to 10 mM and then stored. Before the study, an appropriate amount of mother liquor of the 10 mM compound to be tested was diluted with DMSO, so that 1 mM solution was obtained. The solution was then gradiently diluted 3-fold with DMSO, 10 concentration gradients in total. PBS was then used to carry out 100-fold dilution, so that compound solutions of 10× series of concentrations were prepared.
as §5, §6, §7, §8
10 μL compound solutions of different concentrations, 25 μL rhVAP-1 enzyme solutions of 4× concentrations and 15 μL of PBS were first added into a 96-well plate, shaken to be mixed uniformly and then incubated at 37° C. for 30 min. 50 μL substrate mixtures of 2× concentrations were then added into each well, and the microplate reader was immediately used to detect fluorescence intensity of each well with 565 nm exciting light and 590 nm emission light for 5 min each time, 25 min in total. […]
as §16

pIC50 (rhVAP-1 [1]) | pIC50 (MAO-A) | pIC50 (MAO-B) | pIC50 (rhAOC1) | pIC50 (rhVAP-1 [2]) | SMILES
7.89 | 4.11 | 4.05 | – | – | NC/C(=C\F)Cn1ncc2c(=O)n(C3CC3)ccc21 [Compound A44 hydrochloride, (E)-1-(2-(aminomethyl)-3-fluoroallyl)-5-cyclopropyl-1,5-dihydro-4H-pyrazolo[4,3-c]pyridin-4-one]
8.10 | < 4.00 | < 4.00 | – | – | CC(C)(C)CN1CCc2nn(C/C(=C/F)CN)cc2C1=O [Compound A37 hydrochloride, (E)-2-(2-(aminomethyl)-3-fluoroallyl)-5-neopentyl-2,5,6,7-tetrahydro-4H-pyrazolo[4,3-c]pyridin-4-one]
– | – | – | 4.57 | 7.10 | NC/C(=C\F)Cn1ccc2cc(C(=O)N3CCOCC3)ccc21 [Compound C1, (E)-(1-(2-(aminomethyl)-3-fluoroallyl)-1H-indol-5-yl)(morpholino)methanone]
